The subject of one series is E7-specific CD8 T cells. The experiment in a line: E7-specific CD8 T cell response after intramuscular E7 mRNA LNP vaccination (Example 5). The conditions noted are these: Example 5, FIG. 13, in vitro stimulation with E7-derived peptide, vs MC-3. Format: in vivo, mice.
Series [1] is described as follows: mRNA encapsulation efficiency by Ribogreen RNA assay. Format: physicochemical. The following applies: for E.E. (encapsulation efficiency): N/P 10. The method, then: Lipid based nanoparticles are produced by microfluidic mixing of an mRNA solution in sodium acetate buffer (100 mM, pH4) and lipid solution in a 2:1 volume ratio at a speed of 9 mL/min using the NanoAssemblr Benchtop (Precision Nanosystems). The lipid solution contained a mixture of the ionizable lipid of interest, DSPC, DOPC or DOPE (Avanti), Cholesterol (Sigma) and DMG-PEG2000 (Sunbright GM-020, NOF corporation. The 4 lipids were mixed at 6 different molar ratios. LNPs were dialyzed against TBS (10000 times more TBS volume than LNP volume) using slide-a-lyzer dialysis cassettes (20K MWCO, 3 mL, ThermoFisher). Size, polydispersity and zeta potential were measured with a Zetasizer Nano (Malvern). mRNA encapsulation was measured by standard Ribogreen RNA assay (Invitrogen). […]
(§1) LNP formulations were prepared using a modified procedure of a method previously described for siRNA LNP synthesis. All formulations were prepared in a sterile manner with a N/P ratio of 10. All lipid components were dissolved in ethanol at molar ratios of 50:10:38.5:1.5 mol % (ionizable lipid/DSPC/Cholesterol/DMG-PEG2000). DSPC, Cholesterol and DMG-PEG2000 were purchased from Avanti Polar Lipids (Alabaster, Alabama, USA), while the Ionizable lipids are synthesized in-house. The final lipid concentration in ethanol was fixed at 10 mg/mL. E7 mRNA was dissolved in 100 mM acetate buffer (Sigma Aldrich, Saint-Louis, Missouri, USA) pH 4. The ethanol and aqueous phase were combined using a microfluidic mixer (NanoAssemblr® BenchTop (Precision Nanosystems, Vancouver, BC) in a 2:1 (aqueous:ethanol) ratio. Formulations were dialysed afterwards against 1× Sterile TBS pH 7.4 (Sigma Aldrich, Saint-Louis, Missouri, USA) using Slide-A-Lyzer® dialysis cassettes with a MWCO of 20.000 Da (Thermo Scientific, Massachusetts, USA) for 18 hours. Afterwards, the purified formulations were concentrated using Amicon ultra centrifugal filters (EMD Millipore, Massachusetts, USA). Finally, the exact concentration and E.E. % was determined through a Ribogreen Assay prior to final dilution with TBS (100 μg/mL E7 mRNA per formulation. All formulations were characterized for size and PDI using Dynamic Light Scattering Zetasizer Nano-ZS (Malvern Pananlytical Ltd., Malvern, UK) and stored afterwards at 4° C. The physico-chemical characteristics of each formulation can be found in Table 5.

The nature of series [2]: LNP size and polydispersity index by Dynamic Light Scattering (Malvern Zetasizer). It counts as physicochemical.
Experiment in series [3]: as above
It counts as physicochemical. The following applies: N/P 10. The method, then:
Lipid based nanoparticles are produced by microfluidic mixing of an mRNA solution in sodium acetate buffer (100 mM, pH4) and lipid solution in a 2:1 volume ratio at a speed of 9 mL/min using the NanoAssemblr Benchtop (Precision Nanosystems). The lipid solution contained a mixture of the ionizable lipid of interest, DSPC, DOPC or DOPE (Avanti), Cholesterol (Sigma) and DMG-PEG2000 (Sunbright GM-020, NOF corporation. The 4 lipids were mixed at 6 different molar ratios. LNPs were dialyzed against TBS (10000 times more TBS volume than LNP volume) using slide-a-lyzer dialysis cassettes (20K MWCO, 3 mL, ThermoFisher). Size, polydispersity and zeta potential were measured with a Zetasizer Nano (Malvern). mRNA encapsulation was measured by standard Ribogreen RNA assay (Invitrogen).
Size and Poly Dispersity Index were assessed by Dynamic Light Scattering (DLS) on a Malvern Zetasizer. MC-3 is the ionizable lipid used in Onpattro and is considered the state-of-the art.
as §1

Series [4] can be described thus: Body weight after intratumoral LNP administration (B16F10 model). It counts as in vivo, C57/BL6 mice. The following applies: B16F10 model (Example 2.5); after intratumoral administration of 10 μg mRNA LNP.
Series [5] in a line: Body weight after intratumoral LNP administration (CT26 model). Format: in vivo, Balb/c mice. The following applies: after intratumoral administration of 10 μg mRNA LNP. The method, then: Fluc mRNA expression in tumor and liver was assessed at 6 an 24 hours post injection. By injecting mice peritoneally with D-luciferin (Promega), bioluminescence can be measured through in vivo imaging (IVIS Spectrum System). Bioluminescence is generated through an oxidation reaction which occurs between the enzyme luciferase derived from the firefly mRNA encapsulated in the LNP and its substrate D-luciferin. The Living Image Software (PerkinElmer) was used to specify tumor and liver ‘region of interests (ROIs) after which the average radiance (p/s/cm^2/sr) was calculated within these ROIs. To monitor tolerability of different LNP types used, bodyweight at 6 and 24 hours post injection was compared to baseline bodyweight at day of randomization.
Balb/c mice were subcutaneously inoculated with CT26 tumor cells. When tumors reached a mean volume of 50-100 mm^3, tumors were injected with the respective mRNA LNPs (10 μg mRNA; 20 μl volume; TBS buffer) or with control buffer.

Series [6] deals with liver. The experiment in a line: Fluc mRNA off-target expression in liver after intratumoral LNP injection of CT26 tumors. It counts as in vivo, Balb/c mice. The conditions noted are these: intratumoral 10 μg mRNA, 6 hours and 24 hours post injection, vs MC-3 based benchmark LNP. The method, then: (§2) In case of CT26 tumor inoculation we used Balb/c mice. For B16F10 tumor inoculation C57/BL6 mice were used. To prepare for subcutaneous tumor inoculation, mice were anesthetized using 2.5% isoflurane and the injection site was shaved. The injection site is typically on the posterior/lateral aspect of the lower left flank. For inoculation purposes, cells need to be approximately 1 week in culture and between passage 3 and 5 after thawing. Cold tumor cell solution was injected subcutaneously at a dose of 0.5*10e6 cells/50 μl PBS. Tumor growth was measured every 2-3 days using the Caliper device. The following formula was used to calculate tumor size: (tumor width*tumor width*tumor length)/2. […] After injections, mice were always monitored for 5-10 minutes until fully awake without showing any sings of pain distress or complications.
(§3) Fluc mRNA expression in tumor and liver was assessed at 6 an 24 hours post injection. By injecting mice peritoneally with D-luciferin (Promega), bioluminescence can be measured through in vivo imaging (IVIS Spectrum System). […] The Living Image Software (PerkinElmer) was used to specify tumor and liver ‘region of interests (ROIs) after which the average radiance (p/s/cm^2/sr) was calculated within these ROIs. […]

The subject of series [7] is liver. In words: Fluc mRNA off-target expression in liver after intratumoral LNP injection of B16F10 tumors. The following applies: B16F10 tumors (Example 2.5); intratumoral 10 μg mRNA; 6 hours and 24 hours post injection; vs MC-3 based benchmark LNP. Format: in vivo, C57/BL6 mice. The method, then: as §2, §3
Another series relates to B16F10 tumors. In words: Fluc mRNA expression in tumor after intratumoral LNP injection, in vivo bioluminescence. The following applies: B16F10 tumors (Example 2.5); intratumoral 10 μg mRNA; 6 hours and 24 hours post injection; vs MC-3 based benchmark LNP. Set-up: species or system C57/BL6 mice. The method, then:
as §2, §3

The mark [8] stands for this setting: Table 6 (Example 4, HA mRNA), ionizable lipid/DSPC/Chol/DMG-PEG2000 50/10/38.5/1.5 mol %.
Setting [9] is: Table 7, Ratio 1: 50/10/38.5/1.5 mol % ionizable lipid/DSPC (SS-EC: DOPE)/Chol/DMG-PEG2000.
[10] abbreviates: Table 7, Ratio 2: 56.71/14.43/27.58/1.28 mol % ionizable lipid/DSPC/Chol/DMG-PEG2000.
[11] abbreviates: Table 6 (Example 4, HA mRNA), ionizable lipid/DSPC/Chol/DMG-PEG2000 50/10/38.5/1.5 mol %, N/P 10.
Setting [12] is: Table 7, Ratio 2: 56.71/14.43/27.58/1.28 mol % ionizable lipid/DSPC/Chol/DMG-PEG2000, N/P 10.
The mark [13] stands for this setting: Table 3, LNP ionizable lipid/phospholipid/cholesterol/DMG-PEG2000 about 50/10/38.5/1.5, DOPE, except MC-3 with DSPC, eGFP mRNA.
The mark [14] stands for this setting: Table 5, ionizable lipid/DSPC/Chol/DMG-PEG2000 50/10/38.5/1.5 mol %, E7 mRNA.

For `CCCCCCCCC(CCCCCC)C(=O)OCCN(CCOC(=O)C(CCCCCC)CCCCCCCC)C(=O)OCCSSCCOC(=O)NCCN1CCCCCC1` (stereo not drawn) [S-Ac7-DHDa], the “T cell responses (IFNg+, IFNg+ TNFa+, IFNg+ Granzyme b+, IFNg+ CD107+ CD8 T cells in spleen)” value with E7-specific CD8 T cells is listed as “superior T cell responses compared to MC-3”. Besides, the “E.E. (encapsulation efficiency)” value in series [1] (setting [8]) amounted to 97%; in series [1] (setting [9]), 97%; in series [1] (setting [10]), 95%. Also, the PDI is given as 0.083 in series [2] (setting [11]), 0.081 in series [2] (setting [12]) and 0.095 in series [3] (setting [9]). In addition, the size in series [2] (setting [11]) was determined as 105.1 nm; in series [2] (setting [12]) it was 88 nm; in series [3] (setting [9]) it was 90 nm.
Turning to `CCCCCCCC/C=C\CCCCCCCC(=O)OCC(CNC(=O)OCCSSCCOC(=O)NCCN1CCCCCC1)OC(=O)CCCCCCC/C=C\CCCCCCCC` (stereo not drawn) [S-Ac7-DOg], the body weight result in series [4] and in series [5] was “No weight loss” throughout. In addition, in series [1] (setting [13]), the “% encap” value came out at 90%. Besides, the “E.E. (encapsulation efficiency)” value in series [1] (setting [14]) was 96%; in series [1] (setting [8]), 98%; in series [1] (setting [9]) it was 97%; in [1] (setting [10]), 96%. In addition, the “off-target Fluc expression in the liver” value in the series on liver [6] and in the series on liver [7] was “strongly reduced off-target expression in the liver” each time. Moreover, in the series on B16F10 tumors, the “Fluc expression levels in the tumor (in vivo bioluminescence)” value is “increased Fluc expression levels in the tumor compared to the MC-3 based benchmark LNP”. Further, the PDI is 0.21 in [2] (setting [13]); 0.077 in series [2] (setting [11]); 0.106 in series [2] (setting [12]); 0.062 in series [3] (setting [14]); 0.094 in series [3] (setting [9]). Besides, the size in series [2] (Table 3, LNP ionizable lipid/phospholipid/cholesterol/DMG-PEG2000 about 50/10/38.5/1.5, DOPE, except MC-3 with DSPC, eGFP mRNA, in nm (unit assumed)) is on record as 87.46; in series [2] (setting [11]), 93.62 nm; in series [2] (setting [12]) it was 97 nm; in series [3] (setting [14]) it was 97.51 nm; in [3] (setting [9]), 109 nm.

For the origin of these results see patent US20240050574A1, “IONIZABLE LIPIDS” (eTheRNA immunotherapies NV, priority 2020, published 2024).
